Laboratory results reported in PubChem BioAssay AID1648 (Sanford-Burnham Center for Chemical Genomics, 2009).
Active and inactive are the calls of the source. The rule behind the calls is not given here.

Biological target: Serine/threonine-protein kinase mTOR (Homo sapiens) (UniProt P42345)
Assay: binders of mTOR FRB domain, biophysical, NMR (AID 1648)
Settings: NMR binding to FRB domain, chemical shift

Chain of Serine/threonine-protein kinase mTOR (Homo sapiens) (P42345 2015-2114): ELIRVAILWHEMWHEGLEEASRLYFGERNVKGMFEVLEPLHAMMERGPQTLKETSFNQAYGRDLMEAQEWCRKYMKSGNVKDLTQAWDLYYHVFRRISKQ

Row | SMILES | Kd
1 | Nc1ncnc(NCCCO)c1[N+](=O)[O-] | > 4 mM (inactive)
2 | Cc1cc(=O)n2[nH]c(C)cc2n1 | > 4 mM (inactive)
3 | Cc1ccc(-n2[nH]c(C)cc2=O)cc1 | > 4 mM (inactive)
4 | CSc1nc2cc(F)c(F)cc2n1C | > 4 mM (inactive)
5 | Cc1ncc(C(=O)O)c(-c2ccccc2)n1 | > 4 mM (inactive)
6 | N=c1n(N)c2ccccc2n1CCO | > 4 mM (inactive)
7 | COC(=O)[C@H]1[C@H]2C[C@H]3c4[nH]c5ccccc5c4CCN3C[C@H]2CC[C@@H]1O | > 4 mM (inactive)
8 | O=c1c(O)cc([C@H]2Oc3cc(O)cc(O)c3C[C@H]2O)cc2c([C@H]3Oc4cc(O)cc(O)c4C[C@H]3O)cc(O)c(O)c12 | > 4 mM (inactive)
9 | N/N=C1\CCCc2c1no[n+]2[O-] | > 4 mM (inactive)
10 | O=C(NCc1ccco1)c1ccc(Br)s1 | > 4 mM (inactive)
11 | CC1(C)N([O-])c2cc([N+](=O)[O-])ccc2[N+]1=O | > 4 mM (inactive)
12 | CC[C@@]1(O)C(=O)OCc2c1cc1n(c2=O)Cc2cc3ccccc3nc2-1 | > 4 mM (inactive)
13 | O=S(=O)(c1ccc(F)c(Cl)c1)N1CCCC1 | > 4 mM (inactive)
14 | CN1CCN(C(=O)c2ccccc2C(=O)O)CC1 | > 4 mM (inactive)
15 | O=C(O)CCn1c(=O)oc2ccccc21 | > 4 mM (inactive)
16 | O=C1CSC(=Nc2ccc(F)cc2)N1 | > 4 mM (inactive)
17 | CC1=NN2C(=N)/C(=C\c3cccs3)C(=O)N=C2S1 | > 4 mM (inactive)
18 | COc1ccc2c(c1)OC/C(=C\c1ccc(OC)c(O)c1)C2=O | > 4 mM (inactive)
19 | CCOc1cc(S(=O)(=O)N2CCOCC2)ccc1F | > 4 mM (inactive)
20 | CCNC(=S)N1CCC(C(N)=O)CC1 | > 4 mM (inactive)
21 | CC(=O)CC1(O)C(=O)Nc2ccccc21 (stereo not given) | > 4 mM (inactive)
22 | COC(=O)CCSCC(=O)Nc1nnc(C)s1 | > 4 mM (inactive)
23 | CC(=O)N1CCc2cc(NC(=O)c3ccc(C)cc3)ccc21 | > 4 mM (inactive)

Row | SMILES | Kd
24 | CCOC(=O)c1cc(C)[nH]n1 | > 4 mM (inactive)
25 | CC1(C)CC2C1CCC1(C)OC2(C)CCC1O (stereo not given) | > 4 mM (inactive)
26 | O=C1NC(=O)C(=Cc2ccccc2)C(=O)N1 | > 4 mM (inactive)
27 | Cc1sc2nc3n(c(=O)c2c1C)CCCS3 | > 4 mM (inactive)
28 | Cc1n[nH]c(C)c1NC(=O)c1cccc(F)c1 | > 4 mM (inactive)
29 | COc1cc(N)ncn1 | > 4 mM (inactive)
30 | C[C@H](CCC(=O)O)[C@H]1CCC2C3C(CC[C@@]21C)[C@@]1(C)CC[C@@H](O)C[C@H]1C[C@H]3O (stereo not given in full) | > 4 mM (inactive)
31 | CC(=O)N(C)Cc1nc2ccccc2n1C | > 4 mM (inactive)
32 | O=C(NCc1n[nH]c(=O)c2ccccc12)C1CC1 | > 4 mM (inactive)
33 | CCOc1ccc(C)cc1S(=O)(=O)n1ccnc1 | > 4 mM (inactive)
34 | CCCNC(=O)CSc1nnc(C)s1 | > 4 mM (inactive)
35 | Cn1c(NCc2ccco2)nc2ccccc21 | > 4 mM (inactive)
36 | Cc1ccc(C)n1CCN1CCNCC1 | > 4 mM (inactive)
37 | C=C1C2CC[C@@]3(C)[C@H](c4ccoc4)OC(=O)C[C@]13O[C@H]1C[C@H](OC(C)=O)C(C)(C)[C@H](CC(=O)OC)[C@@]21C | > 4 mM (inactive)
38 | Cc1cc(=O)[nH]c(N)n1 | > 4 mM (inactive)
39 | CN1CCN(C(=O)c2ccco2)CC1 | > 4 mM (inactive)
40 | N#Cc1cnn(Cc2ccc(Cl)cc2)c1N | > 4 mM (inactive)
41 | CNC(=O)C1COc2ccccc2O1 (stereo not given) | > 4 mM (inactive)
42 | C=C[C@@]1(C)CC(=O)[C@@]2(O)[C@](C)(O1)[C@@H](OC(C)=O)[C@@H](O)C1C(C)(C)CC[C@H](O)[C@@]12C (stereo not given in full) | > 4 mM (inactive)
43 | Cc1c(C(=O)Nn2cnnc2)oc2ccccc12 | > 4 mM (inactive)
44 | NC(=O)c1oc2ccccc2c1N | > 4 mM (inactive)
45 | O=C1CCC(=O)N1CNc1ccccc1 | > 4 mM (inactive)
46 | Nc1cccc2nonc12 | > 4 mM (inactive)

Row | SMILES | Kd
47 | COC(=O)c1ccc2ncccc2c1 | > 4 mM (inactive)
48 | C[C@H]1C(=O)O[C@@H]2CCN3CC=C(COC(=O)[C@](C)(O)[C@]1(C)O)[C@H]23 | > 4 mM (inactive)
49 | CC(=O)Oc1c2c(c(CC=C(C)C)c3c1C(=O)C1=C[C@@H]4CC5C(C)(C)OC(C/C=C(\C)C(=O)O)(C4=O)[C@@]15O3)OC(C)(CCC=C(C)C)C=C2 (stereo not given in full) | > 4 mM (inactive)
50 | Cc1nc(-c2ccccc2)ncc1CO | > 4 mM (inactive)
51 | Nc1ncnc2c1ncn2CCN1CCOCC1 | > 4 mM (inactive)
52 | Cc1ccc(F)cc1NC(=O)c1ccc2c(c1)OCO2 | > 4 mM (inactive)
53 | Cc1cc(C(=O)NCc2cccnc2)cs1 | > 4 mM (inactive)
54 | CNS(=O)(=O)c1cccs1 | > 4 mM (inactive)
55 | O=C(NC(=S)NC1CCS(=O)(=O)C1)c1ccccc1 (stereo not given) | > 4 mM (inactive)
56 | O=c1/c(=C/c2ccccc2F)sc2ncnn12 | > 4 mM (inactive)
57 | Cc1cc(C)n(S(=O)(=O)c2ccc(C)c(C)c2C)n1 | > 4 mM (inactive)
58 | COc1ccc(-c2cc(=O)c3c(OC)c(OC)c(OC)c(OC)c3o2)cc1OC | > 4 mM (inactive)
59 | C=C(C)CSc1nc2nc(C)cc(C)n2n1 | > 4 mM (inactive)
60 | Cc1cc(O)c2c(c1O)C(=O)c1c(O)cc(C)c(O)c1C2=O | > 4 mM (inactive)
61 | Cc1cc(NC(=O)c2ocnc2C)no1 | > 4 mM (inactive)
62 | Nc1nc(N)nc(N2C(=O)c3ccccc3C2=O)n1 | > 4 mM (inactive)
63 | O=C(O)CNCC(O)Cn1c2ccccc2c2ccccc21 (stereo not given) | > 4 mM (inactive)
64 | OCc1ccc2c(c1)OCCO2 | > 4 mM (inactive)
65 | CC(=O)Oc1c2c(c3c(c1CC=C(C)C)O[C@]14C(=C[C@@H]5CC1C(C)(C)OC4(C/C=C(\C)C(=O)O)C5=O)C3=O)OC(C)(CCC=C(C)C)C=C2 (stereo not given in full) | > 4 mM (inactive)
66 | CC(C)CCCC(C)C1CCC2C3C[C@@H](O)[C@@]4(O)C[C@@H](O)CC[C@]4(C)C3CC[C@]12C (stereo not given in full) | > 4 mM (inactive)
67 | NCc1c[nH]c2ccccc12 | > 4 mM (inactive)
68 | Cc1cc(C)n2nc(C(=O)Nc3cccnc3)nc2n1 | > 4 mM (inactive)
69 | CSc1ncc(CO)n1Cc1ccccc1 | > 4 mM (inactive)

Row | SMILES | Kd
70 | Cc1nc2ccccc2c(=O)n1NC(=O)C1CCCCC1 | > 4 mM (inactive)
71 | CCc1cc2c(SCC(=O)O)ncnc2s1 | > 4 mM (inactive)
72 | C=C(C)[C@H]1COc2cc3oc(=O)ccc3cc2O1 | > 4 mM (inactive)
73 | O=S(=O)(c1cccc(Cl)c1)N1CCCC1 | > 4 mM (inactive)
74 | CCOC(=O)c1ccc(Oc2ccc(C)nn2)cc1 | > 4 mM (inactive)
75 | O=C1C(=O)N(CN2CCN(CCO)CC2)c2ccccc21 | > 4 mM (inactive)
76 | O=C1CNc2cc(C(=O)O)ccc2N1 | > 4 mM (inactive)
77 | Cc1ccc2[nH]cc(CCN)c2c1 | > 4 mM (inactive)
78 | OCCNC(=S)Nc1ccccc1 | > 4 mM (inactive)
79 | CC(=O)NC1=C(N(C)C)C(=O)c2ccccc2C1=O | > 4 mM (inactive)
80 | COCC(=O)OCn1nnc2ccccc2c1=O | > 4 mM (inactive)
81 | Cc1nnc(NCCO)[nH]c1=O | > 4 mM (inactive)
82 | Nc1ccc2c(c1)COc1ccccc1O2 | > 4 mM (inactive)
83 | S=c1oc(-c2ccncc2)nn1CCc1ccncc1 | > 4 mM (inactive)
84 | CCN1C(=O)N(CO)C2C1N(C)C(=O)N2C (stereo not given) | > 4 mM (inactive)
85 | Nc1c(N2CCCC2)cnn(-c2ccccc2)c1=O | > 4 mM (inactive)
86 | S=C(c1ccc2c(c1)OCO2)N1CCCC1 | > 4 mM (inactive)
87 | Nc1ccc2nsnc2c1 | > 4 mM (inactive)
88 | Nc1ccccc1C(=O)N1CCNC(=O)C1 | > 4 mM (inactive)
89 | CN1CCC(=NNC(=O)c2ccco2)CC1 | > 4 mM (inactive)
90 | O=C1c2ccccc2C(=O)N1Cc1ccco1 | > 4 mM (inactive)
91 | CC(=O)O[C@@H]1C=C[C@@]2(C)C(C[C@@H](OC(C)=O)[C@@]3(C)C4=CC(=O)O[C@@H](c5ccoc5)[C@]4(C)CCC23)C1(C)C (stereo not given in full) | > 4 mM (inactive)
92 | Cn1c(CO)nc2cc(N)ccc21 | > 4 mM (inactive)

Row | SMILES | Kd
93 | O=C(O)c1cc(F)cc2c1OCOC2 | > 4 mM (inactive)
94 | NC(=O)CCN1C(=O)c2ccccc2C1=O | > 4 mM (inactive)
95 | c1ccc(Cc2nnc3sc(-c4ccccn4)nn23)cc1 | > 4 mM (inactive)
96 | Cc1nc(-c2ccc(C(=O)N3CCOCC3)cc2)cs1 | > 4 mM (inactive)
97 | O=C(O)CCS(=O)(=O)c1ccccc1 | > 4 mM (inactive)
98 | CC1(C)CC23C(=O)CCC(O)C2(C)CCC13 (stereo not given) | > 4 mM (inactive)
99 | CC(=O)c1ccc(Cc2cnc(N)s2)cc1 | > 4 mM (inactive)
100 | COc1ccccc1NC(N)=S | > 4 mM (inactive)
101 | Cn1c(=O)c2cn3ncccc3c2n(C)c1=O | > 4 mM (inactive)
102 | C[C@]12CCC(=O)C=C1CCC1C2C(=O)C[C@@]2(C)C1CC[C@]2(O)C(=O)CO (stereo not given in full) | > 4 mM (inactive)
103 | CC1(C)Oc2ccc(N)cc2O1 | > 4 mM (inactive)
104 | CC(=O)c1c(C)nc2ccccc2c1N | > 4 mM (inactive)
105 | Clc1ccc(-n2ccnc2)nn1 | > 4 mM (inactive)
106 | C=C1C2CC[C@H]3[C@]4(C)C[C@H](OC5OC(CO)C(OS(=O)(=O)O)C(OS(=O)(=O)O)C5OC(=O)CC(C)C)C[C@@H](C(=O)O)[C@H]4CC[C@]3(C2)[C@H]1O (stereo not given in full) | > 4 mM (inactive)
107 | O=C(O)CC1C(=O)NCCN1Cc1ccccc1 (stereo not given) | > 4 mM (inactive)
108 | [O-][n+]1cc(O)c(CN2CCOCC2)c2ccccc21 | > 4 mM (inactive)
109 | COc1ccc(-c2coc3cc(O)ccc3c2=O)cc1 | > 4 mM (inactive)
110 | O=C(O)c1[nH]nc2c1COc1ccccc1-2 | > 4 mM (inactive)
111 | CS(=O)(=O)NN=C1CCCCC1 | > 4 mM (inactive)
112 | O=C(Nn1c(=S)[nH]c2ccccc2c1=O)c1ccncc1 | > 4 mM (inactive)
113 | COc1cc([C@@H]2c3cc4c(cc3C(OC3O[C@@H]5COC(C)O[C@H]5[C@H](O)[C@H]3O)C3COC(=O)[C@@H]32)OCO4)cc(OC)c1O (stereo not given in full) | > 4 mM (inactive)
114 | COc1cc(-c2coc3cc(OC)c(OC)c(OC)c3c2=O)cc(OC)c1OC | > 4 mM (inactive)
115 | Cc1cc(=O)cc(C)n1-c1ccccc1N1CCOCC1 | > 4 mM (inactive)
